Test: xn = mol fraction of the nth substance listed
Conditions: 101 kPa, Liquid, mechanical oscillator

CC(C)OC(C)C [diisopropyl ether] + CC(C)O
mass density [kg/m3]
Conditions	293.15 K	298.15 K	303.15 K	308.15 K	313.15 K	318.15 K
x1 = 0.0277	784.54	780.15	775.28	770.51	766.2	–
x1 = 0.0507	783.14	778.52	773.7	769.05	764.54	759.23
x1 = 0.051	783.12	–	773.67	769.05	764.52	759.21
x1 = 0.0717	781.73	776.95	772.14	767.56	762.92	757.56
x1 = 0.1528	775.51	770.53	765.48	760.84	756.03	750.75
x1 = 0.1938	772.05	–	761.88	757.06	–	–
x1 = 0.2029	771.28	766.41	761.07	756.2	751.49	746.41
x1 = 0.245	767.66	762.95	757.34	752.2	747.64	742.79
x1 = 0.297	–	758.78	752.77	747.3	742.94	738.39
x1 = 0.3068	762.42	758.01	751.96	746.39	742.11	737.61
x1 = 0.398	755.24	751.23	744.62	738.38	734.56	730.51
x1 = 0.4609	750.87	747.02	740.13	733.51	729.95	726.09
x1 = 0.5434	745.99	742.15	735.09	728.12	724.76	720.95
x1 = 0.6032	743.03	739.05	732	724.92	721.58	717.67
x1 = 0.6371	741.54	737.43	730.43	723.33	719.96	715.94
x1 = 0.701	738.99	–	–	–	–	–
x1 = 0.754	737.02	732.28	725.68	718.81	715.06	710.5
x1 = 0.791	–	730.68	724.25	717.51	713.58	708.82
x1 = 0.8296	734.1	728.95	722.69	716.11	711.97	707.02
x1 = 0.8903	731.31	725.97	719.93	713.61	709.12	703.97
x1 = 0.9113	730.18	724.83	718.84	712.6	707.99	702.81
x1 = 0.9547	727.49	722.2	716.27	710.18	705.35	700.18
x1 = 0.973	726.17	720.98	715.03	708.99	704.08	698.96
x1 = 0.9771	725.86	720.69	714.73	708.7	703.78	698.67
x1 = 1	723.86	718.3	712.68	707.06	701.5	696.98

CC(C)OC(C)C [diisopropyl ether] + CO
mass density [kg/m3]
Conditions	293.15 K	298.15 K	303.15 K	308.15 K	313.15 K	318.15 K
x2 = 0	723.86	718.3	712.68	707.06	701.5	696.98
x2 = 0.0423	725.34	720.12	–	708.61	702.92	698.39
x2 = 0.0424	725.34	720.13	714.26	708.63	702.94	698.41
x2 = 0.082	727.36	722.06	716.26	710.51	704.95	699.97
x2 = 0.0822	727.37	722.07	716.27	710.52	704.96	699.98
x2 = 0.1171	729.04	723.73	717.96	712.26	706.79	701.61
x2 = 0.1271	729.5	724.19	718.43	712.74	707.29	702.07
x2 = 0.1827	731.99	726.76	720.98	715.35	709.93	704.6
x2 = 0.2162	733.44	728.28	722.47	716.86	711.42	706.1
x2 = 0.251	734.94	729.84	723.99	718.4	712.93	707.66
x2 = 0.3298	738.41	733.39	727.46	721.88	716.3	711.24
x2 = 0.3577	739.69	–	728.71	723.14	717.52	712.55
x2 = 0.445	–	–	733.04	–	–	–
x2 = 0.4525	744.38	739.19	733.18	727.64	721.96	717.21
x2 = 0.522	748.28	–	736.82	731.34	725.66	720.99
x2 = 0.5543	750.25	744.6	738.65	733.22	727.56	722.88
x2 = 0.609	753.85	747.88	742.01	736.67	731.07	726.33
x2 = 0.6529	756.99	750.75	744.97	739.73	734.2	729.37
x2 = 0.7504	764.78	758.11	752.58	747.61	742.24	737.12
x2 = 0.804	769.56	762.86	757.48	752.69	–	–
x2 = 0.807	769.84	763.14	757.78	–	747.67	742.4
x2 = 0.8727	776.23	769.84	764.66	760.14	754.77	749.37
x2 = 0.9253	781.7	775.96	770.89	766.58	761.06	755.7
x2 = 0.9527	784.68	779.45	774.42	770.23	764.57	759.3
x2 = 0.9773	787.42	782.77	777.76	773.67	767.86	762.7
x2 = 0.989	–	784.41	779.41	775.36	769.46	764.38
x2 = 0.9964	–	–	–	776.46	770.49	–

— the NIST ThermoML archive (doi:10.1016/j.fluid.2014.09.014)
